Where a SMILES comes first, the peptide text is derived from it. [ ]: non-standard residue; d: D form. The star is where a group is joined. dNle = CCCC[C@@H](N)C(=O)O; Hexanoyl = CCCCCC(=O)*; Ahx = NCCCCCC(=O)O
How the values were obtained:
Met = assay: Inhibition of HGF-dependent Met phosphorylation in HEK293 cells; assay type: cell-based, human; conditions: 10 min
Description: HEK293 cells were seeded in 6 well tissue culture plates and grown to 95% confluency in DMEM containing 10% FBS. The cells were serum deprived for 24 h prior to the treatment to reduce the basal levels of phospho-Met. Following serum starvation, cocktails comprised of vehicle and HGF with/without 6-AH analogs were prepared and pre-incubated for 30 min at room temperature. The cocktail was then added to the cells for 10 min to stimulate the Met receptor and downstream proteins. Cells were harvested using RIPA lysis buffer (Millipore; Billerica, Mass.) fortified with phosphatase inhibitor cocktails 1 and 2 (Sigma-Aldrich; St. Louis, Mo.). The lysate was clarified by centrifugation at 15,000 nx g for 15 min, protein concentrations were determined using the BCA total protein assay (Pierce), and then appropriate volumes of the lysates were diluted with 2× reducing Laemmli buffer and heated for ten min at 95° C. Samples containing identical amounts of protein were resolved using SDS-PAGE (Criterion, BioRad Laboratories), transferred to nitrocellulose, and blocked in Tris-buffered saline (TBS) containing 5% milk for 1 h at room temperature. The phospho-Met antibody were added to the blocking buffer at a final concentration of 1:1000 and incubated at 4° C. overnight with gentle agitation. The membranes were then washed several times with water and TBS ([…], 0.05% Tween-20), a 1:5000 dilution of horseradish-peroxidase conjugated goat anti-rabbit antiserum was added, and the membranes further incubated for 1 h at room temperature. Proteins were visualized using the Supersignal West Pico Chemiluminescent Substrate system (Pierce, Fenton, Mo.) and molecular weights determined by comparison to protein ladders (BenchMark, Invitrogen, and Kaleidoscope, BioRad). Film images were digitized and analyzed using a UVP phosphoimager.

MDCK cells [1] = assay: HGF-dependent MDCK cell proliferation (MTT); assay type: cell-based, canine; conditions: analog 10^−10M, 4 days
Description: 5000 MDCK cells were seeded into the wells of a 96 well plates in 10% FBS DMEM. To induce cellular quiescence, the cells were serum deprived for 24 h prior to initiating the treatments. Following serum starvation, 10 ng/ml HGF alone and with various concentrations of 6-AH analogs or PBS vehicle were added to the media. The cells were allowed to grow under these conditions for 4 days with a daily addition of 6-AH analogs. On the fourth day, 1 mg/ml of […] (MTT, Sigma-Aldrich) prepared in PBS was added to the cells and incubated for 4 h. Dimethyl sulfoxide diluted in a 0.01M glycine buffer was added to solubilize the cell membranes and the absorbance of reduced MTT in the buffer was quantitated at 590 nm using a plate reader (Biotek Synergy 2, Winooski, Vt.). HGF-dependent proliferation was determined by subtracting the basal proliferation (in the absence of HGF) from total proliferation rates in groups containing HGF.

MDCK cells [2] = assay: Inhibition of HGF-dependent scattering in MDCK cells; assay type: cell-based, canine; conditions: 20 ng/ml HGF, 48 h
Description: (§1) MDCK cells were grown to 100% confluency on the coverslips in six-well plates and washed twice with PBS. The confluent coverslips were then aseptically transferred to new six well plates containing 900 μl serum free DMEM. Norleual, Hinge peptide, and/or HGF (20 ng/ml) were added to appropriate wells. Control wells received PBS vehicle. Plates were incubated at 37° C. with 5% CO2 for 48 hours. Media was removed and cells were fixed with methanol. Cells were stained with Diff-Quik Wright-Giemsa (Dade-Behring, Newark, Del.) and digital images were taken. Coverslips were removed with forceps and more digital images were captured. Pixel quantification of images was achieved using Image J and statistics were performed using Prism 5 and InStat v.3.05.
as §1, with “h.” for “hours.”, “v.3.05 (GraphPad; San Diego, Calif.).” for “v.3.05.”

[3] = tested on: B16-F10 murine melanoma cells; assay: B16-F10 melanoma lung colony formation; assay type: in vivo; conditions: daily IP 10 μg/kg/day and 100 μg/kg/day, 14 days, C57BL/6 mice
Description: Six to eight month old C57BL/6 mice were injected with 400,000 B16-F10 cells in 200 μl PBS by tail vein injection and subsequently received daily intraperitoneal injections of either D-Nle-X-Cys-NH—(CH2)5—CONH2 (10 μg/kg and 100 μg/kg) or a PBS vehicle control. Two weeks later, mice were anesthetized and lungs were perfused with PBS and removed. Photos were taken and lungs were solubilized in 1% Triton x-100, 20 mM Tris, 0.15 M NaCl, 2 mM EDTA, and 0.02% sodium azide. Samples were disrupted by sonication (Mixonix, Farmingdale, N.Y.) and spun. The supernatant was transferred to a 96 well plate and melanin absorbance at 410 nm was measured using a plate reader.

[4] = Stability of Dihexa in the blood (not shown); assay type: in vitro ADME
[5] = Blood stability studies (heparinized rat blood, 37° C.); assay type: in vitro ADME; conditions: heparinized whole blood, single phase exponential decay, read-out: stability t1/2 in blood
Description: At the end of each incubation, 20 μL of Nle^1-AngIV (100 μg/mL) was added to each sample as an internal standard. […] All samples were centrifuged at 4° C., 2300×g for 5 min and the supernatants were transferred to clean tubes.
Samples were then separated by HPLC on an Econosphere C18 (100 mm×2.1 mm) from Grace Davison Discovery Science (Deerfield, Ill.). […] The mobile phase consisted of HPLC water (Sigma St. Louis, Mo.) with 0.1% trifluoroacetic or 0.1% heptafluorobutyric acid (Sigma St. Louis, Mo.) and varying concentrations of ACN or methanol. Separation was carried out using a gradient method, at ambient temperature and a flow rate of 0.3 mL/min (see below for more information). Stability half-lives were determined assuming a normal single phase exponential decay using Prism 5 graphical/statistical program (GraphPad, San Diego, Calif.).

[6] = rat, iv, 24 mg/kg
Description: (§2) Male Sprague-Dawley rats (250+ g) were allowed food (Harlan Teklad rodent diet) and water ad libitum in our AAALAC certified animal facility. Rats were housed in temperature-controlled rooms with a 12 h light/dark cycle. The right jugular veins of the rats were catheterized with sterile polyurethane Hydrocoat™ catheters (Access Technologies, Skokie, Ill., USA) under ketamine (Fort Dodge Animal Health, Fort Dodge, Iowa, USA) and isoflurane (Vet One™, MWI, Meridian, Id., USA) anesthesia. The catheters were exteriorized through the dorsal skin. The catheters were flushed with heparinized saline before and after blood sample collection and filled with heparin-glycerol locking solution (6 mL glycerol, 3 mL saline, 0.5 mL gentamycin (100 mg/mL), 0.5 mL heparin (10,000 u/mL)) when not used for more than 8 h. The animals were allowed to recover from surgery for several days before use in any experiment, and were fasted overnight prior to the pharmacokinetic experiment.
(§3) Catheterized rats were placed in metabolic cages prior to the start of the study and time zero blood samples were collected. […] After dosing, blood samples were collected as follows (times and blood volumes collected are listed in chronological order):
(§4) After each blood sample was taken, the catheter was flushed with saline solution and a volume of saline equal to the volume of blood taken was injected (to maintain total blood volume).
(§5) Upon collection into polypropylene microfuge tubes without heparin, blood samples were immediately centrifuged at 4° C., 2300×g for 5 min to remove any cells and clots and the serum transferred into clean microcentrifuge tubes. A volume of internal standard (Nle^1-AngIV, 100 μg/mL) equal to 0.1 times the sample serum volume was added. A volume of ice-cold acetonitrile equal to four times the sample serum volume was then added and the sample vortexed vigorously for 30 s. The supernatants were transferred to clean tubes, then held on ice until the end of the experiment, and stored at 4° C. afterward until further processing.
(§6) All samples were evaporated to dryness in a Savant SpeedVac® concentrator. […] The samples were then transferred to HPLC autosampler vials and 100 μl was injected into the HPLC system a total of 2 times (2 HPLC/MS analyses) for each sample.
(§7) Data collection and integration were achieved using Shimadzu LCMS solution software. The analytical column used was an Econosphere C18 (100 mm×2.1 mm) from Grace Davison Discovery Science (Deerfield, Ill., USA). The mobile phase consisted of HPLC grade methanol and water with 0.1% trifluoroacetic acid. Separation was carried out using a non-isocratic method (40%-50% methanol over 10 min) at ambient temperature and a flow rate of 0.3 mL/min. […] Data were normalized based on the recovery of the internal standard.
(§8) Pharmacokinetic analysis was performed using data from individual rats. The mean and standard deviation (SD) were calculated for the group.

in vivo = conditions: male, Sprague-Dawley, rat, iv, 24 mg/kg
Description: as §2, §3, §4, §5, §6, §7, §8

For `CCCC[C@@H](N)C(=O)N[C@@H](CS)C(=O)N[C@H](C(=O)NCCCCCC(N)=O)[C@@H](C)CC` [D-Nle-Cys-Ile-NH—(CH2)5—CONH2] (H-[dNle]CI[Ahx]-NH2), the “inhibition of HGF-dependent Met auto-phosphorylation” value (Met) was “able to block Met auto-phosphorylation”, the “inhibition of HGF-dependent MDCK cell proliferation” value (MDCK cells [1]) was “marked inhibitory activity” and the “inhibition of HGF-dependent MDCK cell scattering” value (MDCK cells [2]) was “different from the HGF alone group but not different from the control group”. For the same molecule, the “inhibition of B16-F10 melanoma lung colonization” value [3] was “radically prevented lung colonization” and the “inhibition of B16-F10 melanoma lung colonization” value ([3]; listed as D-Nle-Cys-Ile-(6)-amino-hexanoic amide) was “obvious reduction in melanoma colonies”.

In the case of `CCCCCC(=O)N[C@@H](Cc1ccc(O)cc1)C(=O)N[C@H](C(=O)NCCCCCC(N)=O)[C@@H](C)CC` [Dihexa, N-hexanoic-Tyr-Ile-(6)-aminohexanoic amide] (Hexanoyl-Tyr-Ile-[Ahx]-NH2), the “stable in the blood” value [4] is reported as “over 5 hours”.

In the case of `CCCC[C@@H](N)C(=O)N[C@@H](Cc1ccc(O)cc1)C(=O)N[C@H](C(=O)NCCCCCC(N)=O)[C@@H](C)CC` (H-[dNle]YI[Ahx]-NH2), the half-life [5] is reported as 1.33 h, the “inhibition of HGF-dependent Met auto-phosphorylation” value (Met) is reported as “able to block Met auto-phosphorylation” and the “inhibition of HGF-dependent MDCK cell proliferation” value (MDCK cells [1]) is reported as “marked inhibitory activity”. The “inhibition of HGF-dependent MDCK cell scattering” value (MDCK cells [2]) was “different from the HGF alone group but not different from the control group”, the “t½ (in vivo elimination half-life)” value ([6]; male, Sprague-Dawley) was 16.867 ± 6.523 h and the KE ([6]; in vivo) was 0.001 ± 0.0002 min⁻¹. The AUC(0-inf) (in vivo) was 11500 ng·h/mL, the Vd (in vivo) was 104 ± 65 L/kg and the clearance (in vivo) was 58.3 ± 15.6 mL/min/kg. For the same molecule, the half-life (in vivo) was 16.9 h.
